These are literature values, as cited in article PMC12308805, “Ultrahigh-Throughput Virtual Screening Strategies against PPI Targets: A Case Study of STAT Inhibitors” (Journal of Chemical Information and Modeling, 2025).

The data set relates to STAT3. The note with it: sheet 6QHD_actives_decoys, retrospective screening set for STAT3 SH2 domain (PDB 6QHD); decoys are presumed inactives, not tested; ref DUD-E; cited from earlier work.
With `C[C@H](CCC(=O)NCCS(=O)(=O)O)[C@H]1CC[C@H]2[C@H]3[C@H](O)C[C@@H]4C[C@H](OS(=O)(=O)O)CC[C@]4(C)[C@H]3C[C@H](O)[C@]12C` [Decoy830], the Type entry was “Inactive (Decoy)”. As for `CCOc1ccccc1NC(=O)CSC1=C(C#N)[C@H](c2ccco2)C(/C(O)=N/c2ccc(S(N)(=O)=O)cc2)=C(C)N1` [Decoy831], the Type entry is “Inactive (Decoy)”. In the case of `CCOc1ccc(-c2nn(-c3ccccc3)cc2C2C(C(=O)OCCOC)=C(C)NC(C)=C2C(=O)OCCOC)cc1C` [Decoy832], the Type entry is on record as “Inactive (Decoy)”.

Consider `COCCOC(=O)C1=C(C)NC(SCC(=O)Nc2ccc([N+](=O)[O-])cc2)=C(C#N)[C@@H]1c1ccco1` [Decoy833], for which the Type result is on record as “Inactive (Decoy)”. `CCc1c(C)nc(-n2nc(-c3ccco3)cc2NC(=O)c2cc(OC)c(OC)cc2[N+](=O)[O-])nc1O` [Decoy834]: the Type entry is on record as “Inactive (Decoy)”. On to `COc1ccc(OC)c(S(=O)(=O)Nc2ccc(S(=O)(=O)Nc3nccc(C)n3)cc2)c1` [Decoy835], for which the Type entry is listed as “Inactive (Decoy)”. With `CC(C)(O)[C@@H](O)CC[C@@H](CO)[C@H]1CC[C@]2(C)C3=C(C[C@H](O)[C@@]12C)[C@@]1(C)C[C@H](O)[C@H](OC(=O)C[C@](C)(O)CC(=O)NCC(=O)O)C(C)(C)[C@H]1CC3` [Decoy836], the Type entry is on record as “Inactive (Decoy)”.

As for `COc1cc(S(=O)(=O)N2CCCCC2)ccc1N/C=C1\C(=O)NC(=O)N(c2ccc(C)cc2)C1=O` [Decoy837], the Type result is listed as “Inactive (Decoy)”.

In the case of `CCOC(=O)c1c(NC(=O)/C(O)=N/N=C/c2cn(-c3ccccc3)nc2-c2ccc(OC)cc2)sc2c1CCCC2` [Decoy838], the Type entry is recorded as “Inactive (Decoy)”. As to `CC1(C)[C@]2(C(=O)NCCN(CCNC(=O)[C@]34CC[C@](C)(C(=O)C3)C4(C)C)CCNC(=O)[C@]34CC[C@](C)(C(=O)C3)C4(C)C)CC[C@@]1(C)C(=O)C2` [Decoy839], the Type entry is “Inactive (Decoy)”. As for `O=C(O)c1ccccc1Nc1ccc(C(F)(F)F)cc1Nc1ccc(CNCc2c[nH]c(=O)[nH]c2=O)cc1C(=O)O` [Decoy840], the Type result is recorded as “Inactive (Decoy)”. For `N[C@@H](CCCC[n+]1cc(CC[C@H](N)C(=O)O)cc(CC[C@H](N)C(=O)O)c1CCC[C@H](N)C(=O)O)C(=O)[O-]` [Decoy841], the Type entry is listed as “Inactive (Decoy)”. Turning to `COc1cc(C(=O)O)ccc1O[C@@H]1O[C@H](COC(=O)c2ccc(O)c(O)c2)[C@@H](O)[C@H](O)[C@H]1O` [Decoy842], the Type result is reported as “Inactive (Decoy)”. `CCOC(=O)c1sc(NC(=O)CSc2nnc(CNC(=O)c3ccccc3OC)n2C)c(C(=O)OCC)c1C` [Decoy843]: the Type result was “Inactive (Decoy)”.

As for `CCN(CC)Cc1c(C(=O)N/N=C/c2cc(Cl)ccc2OCc2c(F)cccc2Cl)nnn1-c1nonc1N` [Decoy844], the Type entry is on record as “Inactive (Decoy)”. For the molecule `CCOC(=O)c1ccc(NC(=O)C(=O)NCc2ccc(/C=C3/C(=O)N(c4ccc(C)c(Cl)c4)C(C)=C3C(=O)OC)o2)cc1` [Decoy845], the Type entry is given as “Inactive (Decoy)”.

With `CCOC(=O)c1ccc(NC(=O)C(=O)NCc2ccc(/C=C3\C(=O)N(c4ccc(Cl)c(Cl)c4)C(C)=C3C(=O)OC)o2)cc1` [Decoy846], the Type result is given as “Inactive (Decoy)”. `CC(C)(CO[P@](=O)(O)O[P@](=O)(O)OC[C@H]1O[C@@H](n2cnc3c(N)ncnc32)[C@H](O)[C@@H]1OP(=O)(O)O)[C@@H](O)C(=O)NCCC(=O)NCCS` [Decoy847]: the Type entry is listed as “Inactive (Decoy)”.

Turning to `CCOc1cc([C@@H]2C(C(=O)c3ccc4c(c3)OCCO4)=C(O)C(=O)N2CCCN2CCOCC2)ccc1O` [Decoy848], the Type entry is on record as “Inactive (Decoy)”.

With `CC(C)(C)NS(=O)(=O)c1ccc(NC(=O)CSc2nnc(N/N=C/c3cccc(O)c3)n2N)cc1` [Decoy849], the Type entry is on record as “Inactive (Decoy)”.

Regarding `CCCN[C@H](c1cc(F)ccc1Cl)c1cc(C)ccc1Br` [Decoy850], the Type entry was “Inactive (Decoy)”. Take `COc1cc(-c2ccc(/N=N/c3ccc4c(S(=O)(=O)O)cc(S(=O)(=O)O)c(N)c4c3O)c(OC)c2)ccc1/N=N\c1c(O)ccc2ccccc12` [Decoy851]: the Type result is on record as “Inactive (Decoy)”. `C[C@H](OC(=O)c1sccc1NS(C)(=O)=O)C(=O)NCC(=O)Nc1ccc(F)c(F)c1F` [Decoy852]: the Type result is given as “Inactive (Decoy)”. Consider `CCSc1nnc(NC(=O)CSc2nnc(CNC(=O)c3cccs3)n2-c2ccccc2OC)s1` [Decoy853], for which the Type result is reported as “Inactive (Decoy)”. Regarding `CC(=O)SCCNC(=O)CCNC(=O)[C@@H](O)C(C)(C)CO[P@](=O)(O)O[P@](=O)(O)OC[C@H]1O[C@@H](n2cnc3c(N)ncnc32)[C@@H](O)[C@H]1OP(=O)(O)O` [Decoy854], the Type entry is listed as “Inactive (Decoy)”. Regarding `CCc1ccc(NC(=O)CSC2=C(C#N)[C@H](c3ccco3)C(C(=O)Nc3ccc(S(N)(=O)=O)cc3)=C(C)N2)cc1` [Decoy855], the Type result is listed as “Inactive (Decoy)”.

Consider `COc1cc(C(=O)NNC(=S)NC(=O)COc2ccc(Br)cc2C)cc(OC)c1OC` [Decoy856], for which the Type entry is listed as “Inactive (Decoy)”. As to `CCNc1nc(NCC)n2c(SCC(=O)NC3=C(C(=O)OCC)[C@H]4CCC[C@@H]4S3)nnc2n1` [Decoy857], the Type entry is listed as “Inactive (Decoy)”.

As to `CCOc1ccc(S(=O)(=O)Nc2ccc(C(=O)N/N=C(\C)c3ccc(OC)cc3O)cc2)cc1` [Decoy858], the Type entry is listed as “Inactive (Decoy)”.

On to `COc1cc(-c2ccc(/N=N/c3cc(S(=O)(=O)O)c4ccccc4c3O)c(OC)c2)ccc1/N=N\c1c(S(=O)(=O)O)cc2cc(C(=O)O)c(O)cc2c1O` [Decoy859], for which the Type entry is reported as “Inactive (Decoy)”. For the molecule `CC[C@H](C)[C@H](O)C(=O)O[C@H](C(=O)O[C@H](C(=O)OC[C@@H](O)[C@@H](O)[C@@H](O)[C@@H](O)CO)[C@@H](C)CC)[C@@H](C)CC` [Decoy860], the Type entry is on record as “Inactive (Decoy)”. Regarding `CC[C@H](C)[C@H](O)C(=O)O[C@H](C(=O)O[C@H](C(=O)OC[C@H](O)[C@H](O)[C@H](O)[C@H](O)CO)[C@@H](C)CC)[C@@H](C)CC` [Decoy861], the Type entry is “Inactive (Decoy)”. Take `CC[C@@H](C)[C@H](O)C(=O)O[C@H](C(=O)O[C@H](C(=O)OC[C@@H](O)[C@@H](O)[C@@H](O)[C@@H](O)CO)[C@@H](C)CC)[C@@H](C)CC` [Decoy862]: the Type entry was “Inactive (Decoy)”. For the molecule `CC[C@H](C)[C@H](OC(=O)[C@@H](OC(=O)[C@H](O)[C@@H](C)CC)[C@@H](C)CC)C(=O)OC[C@H](O)[C@H](O)[C@H](O)[C@H](O)CO` [Decoy863], the Type entry is recorded as “Inactive (Decoy)”. Regarding `CCCCN(C(=O)c1cccc(S(=O)(=O)N2CCN(C)CC2)c1)c1c(N)n(CCCC)c(=O)[nH]c1=O` [Decoy864], the Type result is reported as “Inactive (Decoy)”. For `O=c1ccn([C@@H]2O[C@H](CO[P@](=O)(O)O[P@@](=O)(O)O[C@H]3OC[C@@H](O)[C@H](O)[C@H]3O)[C@@H](O)[C@H]2O)c(=O)[nH]1` [Decoy865], the Type result is “Inactive (Decoy)”. `CCOC(=O)C1=C(CN2CCN(CC(=O)Nc3cccc(F)c3)CC2)NC(=O)N[C@@H]1CC` [Decoy866]: the Type result is reported as “Inactive (Decoy)”. In the case of `CCN(CC)S(=O)(=O)c1ccc(OC)c(NC(=O)COc2cc(C)ccc2C(N)=O)c1` [Decoy867], the Type result is “Inactive (Decoy)”. For `C[C@H]1CN(S(=O)(=O)c2ccc(C(=O)Nc3ccc(S(=O)(=O)Nc4nccs4)cc3)cc2)C[C@H](C)O1` [Decoy868], the Type result is “Inactive (Decoy)”.
